# Data published in patent publication US6653300B2, “Pyrazole compounds useful as protein kinase inhibitors” (Vertex Pharmaceuticals Incorporated, priority 2000, dated 2003).
# Key:
# [1] = target: T1, Aurora-2 (Homo sapiens, UniProt O14965); test: Ki determination for the inhibition of Aurora-2 (coupled enzyme assay); type: biochemical; conditions: 70 nM Aurora-2, 30° C.
# T1 sequence (O14965 1-403): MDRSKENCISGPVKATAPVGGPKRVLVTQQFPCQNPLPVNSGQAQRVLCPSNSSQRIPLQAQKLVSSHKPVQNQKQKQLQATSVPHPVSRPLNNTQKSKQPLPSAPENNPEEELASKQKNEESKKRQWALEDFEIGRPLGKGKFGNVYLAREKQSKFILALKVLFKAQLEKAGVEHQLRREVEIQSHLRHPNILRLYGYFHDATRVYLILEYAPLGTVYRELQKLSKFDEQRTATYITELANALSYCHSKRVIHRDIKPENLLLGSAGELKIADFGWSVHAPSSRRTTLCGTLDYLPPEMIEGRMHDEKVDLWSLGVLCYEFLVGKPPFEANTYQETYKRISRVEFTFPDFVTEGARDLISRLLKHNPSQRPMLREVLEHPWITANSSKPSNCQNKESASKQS
# Procedure, shortened: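 Ki came from reaction rates plotted against inhibitor concentration, with rates taken as A340 decrease over 5 min at 30° C. Enzyme (70 nM final) was added after 10 min compound preincubation; stock buffer held […], 800 μM LRRASLG, PK/LDH coupling, pH 7.5.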
# [2] = target: CDK-2/Cyclin A (Homo sapiens, UniProt P24941); test: CDK-2 inhibition assay (coupled enzyme assay); type: biochemical; conditions: 25 nM CDK-2/Cyclin A, 30° C.
# Method: Compounds were screened in the following manner for their ability to inhibit CDK-2 using a standard coupled enzyme assay (Fox et al (1998) Protein Sci 7, 2249).
# To an assay stock buffer solution containing 0.1M HEPES 7.5, 10 mM MgCl2, 1 mM DTT, 25 mM NaCl, 2.5 mM phosphoenolpyruvate, […], 30 mg/ml pyruvate kinase, 10 mg/ml lactate dehydrogenase, 100 mM ATP, and 100 μM peptide ([…], American Peptide, Sunnyvale, Calif.) was added a DMSO solution of a compound of the present invention to a final concentration of 30 μM. The resulting mixture was incubated at 30° C. for 10 min.
# The reaction was initiated by the addition of 10 μL of CDK-2/Cyclin A stock solution to give a final concentration of 25 nM in the assay. The rates of reaction were obtained by monitoring absorbance at 340 nm over a 5-minute read time at 30° C. using a BioRad Ultramark plate reader (Hercules, Calif.). The Ki values were determined from the rate data as a function of inhibitor concentration.
smiles,measurement,setting,value
"c1ccc2c(Nc3cc(C4CC4)[nH]n3)nc(Nc3ccc4ncsc4c3)nc2c1 [IIc-32, [2-(Benzothiazol-6-ylamino)-quinazolin-4-yl]-(5-cyclopropyl-2H-pyrazol-3-yl)-amine]",Ki,[1],< 100 nM
same,Ki,[2],< 1000 nM
